# Laboratory results published in US5393743A, “Erythromycin derivatives” (Abbott Laboratories, priority 1993, dated 1995).
# Like-named read-outs stand apart in the source and are kept apart here.
# Tests used:
# [1] = test system: Escherichia coli SS; test: microbe, parasite or virus in culture
# Protocol: (§1) Representative compounds of the present invention were assayed in vitro for antibacterial activity as follows: Twelve petri dishes containing successive aqueous dilutions of the test compound mixed with 10 mL of sterilized Brain Heart Infusion (BHI) agar (Difco 0418-01-5) were prepared. Each plate was inoculated with 1:100 (or 1:10 for slow-growing strains, such as Micrococcus and Streptococcus) dilutions of up to 32 different microorganisms, using a Steers replicator block. The inoculated plates were incubated 35°-37° C. for 20 to 24 hours. In addition, a control plate, using BHI agar containing no test compound, was prepared and incubated at the beginning and end of each test.
# (§2) An additional plate containing a compound having known susceptibility patterns for the organisms being tested and belonging to the same antibiotic class as the test compound was also prepared and incubated as a further control, as well as to provide test-to-test comparability. Erythromycin A was used for this purpose.
# (§3) After incubation, each disk was read. The minimum inhibitory concentration (MIC) was defined as the lowest concentration of drug yielding no growth, a slight haze, or sparsely isolated colonies on the inoculum spot as compared to the growth control.
# [2] = test system: Micrococcus luteus ATCC 9341; test: microbe, parasite or virus in culture
# Protocol: as §1, §2, §3
# [3] = test system: Pseudomonas cepacia 2961; test: In vitro antibacterial activity, agar dilution MIC; type: cell-based
# Protocol: as §1, §2, §3
# [4] = test system: Staphylococcus aureus 1775 Cipro R; test: In vitro antibacterial activity, agar dilution MIC; type: cell-based
# Protocol: as §1, §2, §3
# [5] = test system: Pseudomonas aeruginosa BMH10; test: In vitro antibacterial activity, agar dilution MIC; type: cell-based
# Protocol: as §1, §2, §3
# [6] = test system: Escherichia coli KNK 437; test: In vitro antibacterial activity, agar dilution MIC; type: cell-based
# Protocol: as §1, §2, §3
# [7] = test system: Escherichia coli DC-2; test: In vitro antibacterial activity, agar dilution MIC; type: cell-based
# Protocol: as §1, §2, §3
# [8] = test system: Enterobacter aerogenes ATCC 13048; test: In vitro antibacterial activity, agar dilution MIC; type: cell-based
# Protocol: as §1, §2, §3
# [9] = test system: Staphylococcus aureus A5278; test: In vitro antibacterial activity, agar dilution MIC; type: cell-based
# Protocol: as §1, §2, §3
# [10] = test system: Pseudomonas aeruginosa A5007; test: In vitro antibacterial activity, agar dilution MIC; type: cell-based
# Protocol: as §1, §2, §3
# [11] = test system: Pseudomonas aeruginosa K799/WT; test: In vitro antibacterial activity, agar dilution MIC; type: cell-based
# Protocol: as §1, §2, §3
# [12] = test system: Streptococcus bovis A5169; test: In vitro antibacterial activity, agar dilution MIC; type: cell-based
# Protocol: as §1, §2, §3
# [13] = test system: Escherichia coli Juhl; test: In vitro antibacterial activity, agar dilution MIC; type: cell-based
# Protocol: as §1, §2, §3
# [14] = test system: Providencia stuartii CMX 640; test: In vitro antibacterial activity, agar dilution MIC; type: cell-based
# Protocol: as §1, §2, §3
# [15] = test system: Staphylococcus aureus ATCC 6538P; test: In vitro antibacterial activity, agar dilution MIC; type: cell-based
# Protocol: as §1, §2, §3
# [16] = test system: Micrococcus luteus 4698; test: In vitro antibacterial activity, agar dilution MIC; type: cell-based
# Protocol: as §1, §2, §3
# [17] = test system: Pseudomonas aeruginosa 5263; test: In vitro antibacterial activity, agar dilution MIC; type: cell-based
# Protocol: as §1, §2, §3
# [18] = test system: Streptococcus pyogenes 2548 induc; test: In vitro antibacterial activity, agar dilution MIC; type: cell-based
# Protocol: as §1, §2, §3
# [19] = test system: Streptococcus pyogenes EES61; test: In vitro antibacterial activity, agar dilution MIC; type: cell-based
# Protocol: as §1, §2, §3
# [20] = test system: Enterococcus faecium ATCC 8043; test: In vitro antibacterial activity, agar dilution MIC; type: cell-based
# Protocol: as §1, §2, §3
# [21] = test system: Staphylococcus aureus NCTC 10649; test: In vitro antibacterial activity, agar dilution MIC; type: cell-based
# Protocol: as §1, §2, §3
# [22] = test system: Staphylococcus aureus A5177; test: In vitro antibacterial activity, agar dilution MIC; type: cell-based
# Protocol: as §1, §2, §3
# [23] = test system: Staphylococcus aureus CMX 553; test: In vitro antibacterial activity, agar dilution MIC; type: cell-based
# Protocol: as §1, §2, §3
# [24] = test system: Streptococcus agalactiae 508; test: In vitro antibacterial activity, agar dilution MIC; type: cell-based
# Protocol: as §1, §2, §3
# [25] = test system: Staphylococcus aureus CMX 642a; test: In vitro antibacterial activity, agar dilution MIC; type: cell-based
# Protocol: as §1, §2, §3
# [26] = test system: Klebsiella pneumoniae ATCC 8045; test: In vitro antibacterial activity, agar dilution MIC; type: cell-based
# Protocol: as §1, §2, §3
# [27] = test system: Staphylococcus epidermidis 3519; test: In vitro antibacterial activity, agar dilution MIC; type: cell-based
# Protocol: as §1, §2, §3
# [28] = test system: Streptococcus pyogenes 930 const; test: In vitro antibacterial activity, agar dilution MIC; type: cell-based
# Protocol: as §1, §2, §3
# [29] = test system: Acinetobacter calcoaceticus CMX 669; test: In vitro antibacterial activity, agar dilution MIC; type: cell-based
# Protocol: as §1, §2, §3
# [30] = test system: Escherichia coli H560; test: In vitro antibacterial activity, agar dilution MIC; type: cell-based
# Protocol: as §1, §2, §3
# [31] = test system: Pseudomonas aeruginosa 2862; test: In vitro antibacterial activity, agar dilution MIC; type: cell-based
# Protocol: as §1, §2, §3
# [32] = test system: Pseudomonas aeruginosa K799/61; test: In vitro antibacterial activity, agar dilution MIC; type: cell-based; settings: BHI agar, 35°-37° C., 20 to 24 hours
molecule,measurement,setting,value
"(3""S)-11-O,12-O-carbonyl-3""-fluoro-3""-desmethoxy-4""-O-methylerythromycin A [Example 15]",MIC,"[1]; Escherichia coli SS, BHI agar, 35°-37° C., 20 to 24 hours",0.2 µg/mL
same,MIC,"[2]; Micrococcus luteus ATCC 9341, BHI agar, 35°-37° C., 20 to 24 hours",0.01 µg/mL
same,MIC,"[3]; Pseudomonas cepacia 2961, BHI agar, 35°-37° C., 20 to 24 hours",25 µg/mL
same,MIC,"[4]; Staphylococcus aureus 1775 Cipro R, BHI agar, 35°-37° C., 20 to 24 hours",> 100 µg/mL
same,MIC,"[5]; Pseudomonas aeruginosa BMH10, BHI agar, 35°-37° C., 20 to 24 hours",> 100 µg/mL
same,MIC,"[6]; Escherichia coli KNK 437, BHI agar, 35°-37° C., 20 to 24 hours",100 µg/mL
same,MIC,"[7]; Escherichia coli DC-2, BHI agar, 35°-37° C., 20 to 24 hours",100 µg/mL
same,MIC,"[8]; Enterobacter aerogenes ATCC 13048, BHI agar, 35°-37° C., 20 to 24 hours",> 100 µg/mL
same,MIC,"[9]; Staphylococcus aureus A5278, BHI agar, 35°-37° C., 20 to 24 hours",> 100 µg/mL
same,MIC,"[10]; Pseudomonas aeruginosa A5007, BHI agar, 35°-37° C., 20 to 24 hours",> 100 µg/mL
same,MIC,"[11]; Pseudomonas aeruginosa K799/WT, BHI agar, 35°-37° C., 20 to 24 hours",100 µg/mL
same,MIC,"[12]; Streptococcus bovis A5169, BHI agar, 35°-37° C., 20 to 24 hours",0.01 µg/mL
same,MIC,"[13]; Escherichia coli Juhl, BHI agar, 35°-37° C., 20 to 24 hours",100 µg/mL
same,MIC,"[14]; Providencia stuartii CMX 640, BHI agar, 35°-37° C., 20 to 24 hours",> 100 µg/mL
same,MIC,"[15]; Staphylococcus aureus ATCC 6538P, BHI agar, 35°-37° C., 20 to 24 hours",0.39 µg/mL
same,MIC,"[16]; Micrococcus luteus 4698, BHI agar, 35°-37° C., 20 to 24 hours",0.1 µg/mL
same,MIC,"[17]; Pseudomonas aeruginosa 5263, BHI agar, 35°-37° C., 20 to 24 hours",> 100 µg/mL
same,MIC,"[18]; Streptococcus pyogenes 2548 induc, BHI agar, 35°-37° C., 20 to 24 hours",0.39 µg/mL
same,MIC,"[19]; Streptococcus pyogenes EES61, BHI agar, 35°-37° C., 20 to 24 hours",0.05 µg/mL
same,MIC,"[20]; Enterococcus faecium ATCC 8043, BHI agar, 35°-37° C., 20 to 24 hours",0.05 µg/mL
same,MIC,"[21]; Staphylococcus aureus NCTC 10649, BHI agar, 35°-37° C., 20 to 24 hours",0.39 µg/mL
same,MIC,"[22]; Staphylococcus aureus A5177, BHI agar, 35°-37° C., 20 to 24 hours",6.2 µg/mL
same,MIC,"[23]; Staphylococcus aureus CMX 553, BHI agar, 35°-37° C., 20 to 24 hours",0.39 µg/mL
same,MIC,"[24]; Streptococcus agalactiae 508, BHI agar, 35°-37° C., 20 to 24 hours",0.05 µg/mL
same,MIC,"[25]; Staphylococcus aureus CMX 642a, BHI agar, 35°-37° C., 20 to 24 hours",0.39 µg/mL
same,MIC,"[26]; Klebsiella pneumoniae ATCC 8045, BHI agar, 35°-37° C., 20 to 24 hours",100 µg/mL
same,MIC,"[27]; Staphylococcus epidermidis 3519, BHI agar, 35°-37° C., 20 to 24 hours",0.39 µg/mL
same,MIC,"[28]; Streptococcus pyogenes 930 const, BHI agar, 35°-37° C., 20 to 24 hours",> 100 µg/mL
same,MIC,"[29]; Acinetobacter calcoaceticus CMX 669, BHI agar, 35°-37° C., 20 to 24 hours",100 µg/mL
same,MIC,"[30]; Escherichia coli H560, BHI agar, 35°-37° C., 20 to 24 hours",50 µg/mL
same,MIC,"[31]; Pseudomonas aeruginosa 2862, BHI agar, 35°-37° C., 20 to 24 hours",> 100 µg/mL
same,MIC,[32],3.1 µg/mL
"CC[C@H]1OC(=O)[C@H](C)[C@@H](O[C@H]2C[C@@](C)(OC)[C@@H](O)[C@H](C)O2)[C@H](C)[C@@H](O[C@@H]2O[C@H](C)C[C@H](N(C)C)[C@H]2O)[C@](C)(O)C[C@@H](C)C(=O)[C@H](C)[C@@H](O)[C@]1(C)O [CONTROL, Erythromycin A, reference compound]",MIC,[1]; Escherichia coli,0.39 µg/mL
same,MIC,"[2]; Micrococcus luteus, ATCC9341",0.05 µg/mL
same,MIC,"[3]; Burkholderia cepacia, 2961",> 100 µg/mL
same,MIC,"[4]; Staphylococcus aureus, 1775CIPROR",> 100 µg/mL
same,MIC,"[5]; Pseudomonas aeruginosa, BMH10",100 µg/mL
same,MIC,"[6]; Escherichia coli, KNK437",50 µg/mL
same,MIC,"[7]; Escherichia coli, DC2",100 µg/mL
same,MIC,"[8]; Klebsiella aerogenes, ATCC13048",100 µg/mL
same,MIC,"[9]; Staphylococcus aureus, A5278",> 100 µg/mL
same,MIC,"[10]; Pseudomonas aeruginosa, A5007",> 100 µg/mL
same,MIC,"[11]; Pseudomonas aeruginosa, K799/WT",> 100 µg/mL
same,MIC,"[12]; Streptococcus equinus, A5169",0.05 µg/mL
same,MIC,[13]; Escherichia coli,50 µg/mL
same,MIC,"[14]; Providencia stuartii, CMX640",> 100 µg/mL
same,MIC,"[15]; Staphylococcus aureus, ATCC6538P",0.2 µg/mL
same,MIC,"[16]; Micrococcus luteus, 4698",0.39 µg/mL
same,MIC,"[17]; Pseudomonas aeruginosa, 5263",> 100 µg/mL
same,MIC,"[18]; Streptococcus pyogenes, 2548INDUC",6.2 µg/mL
same,MIC,"[19]; Streptococcus pyogenes, EES61",0.05 µg/mL
same,MIC,"[20]; Enterococcus faecium, ATCC8043",0.1 µg/mL
same,MIC,"[21]; Staphylococcus aureus, NCTC10649",0.2 µg/mL
same,MIC,"[22]; Staphylococcus aureus, A5177",1.56 µg/mL
same,MIC,"[23]; Staphylococcus aureus, CMX553",0.2 µg/mL
same,MIC,"[24]; Streptococcus agalactiae, 508",0.05 µg/mL
same,MIC,"[25]; Staphylococcus aureus, CMX642A",0.2 µg/mL
same,MIC,"[26]; Klebsiella pneumoniae, ATCC8045",50 µg/mL
same,MIC,"[27]; Staphylococcus epidermidis, 3519",0.2 µg/mL
same,MIC,"[28]; Streptococcus pyogenes, 930CONST",> 100 µg/mL
same,MIC,"[29]; Acinetobacter calcoaceticus, CMX669",1.56 µg/mL
same,MIC,"[30]; Escherichia coli, H560",50 µg/mL
same,MIC,"[31]; Pseudomonas aeruginosa, 2862",> 100 µg/mL
same,MIC,[32]; read-out: MIC,3.1 µg/mL
